Results reported in BindingDB's records for doi:10.1021/jm00352a016 (1983).

Target: Adenylate kinase 2 (Rattus norvegicus) (UniProt P29410)
Assay: Inhibitory activity against rat adenylate kinase II (AK-II) isoenzyme was determined in the presence of ATP, non competitive inhibition

A Ki of 87 mM was found for `Nc1ncnc2c1ncn2[C@@H]1O[C@H](CO)[C@@H](O)[C@H]1O` [[U-14C]adenosine] in this work.
